# Test results as given in paper PMC8245323 (2021).
# Columns and labels:
# [1] = test system: G4 Kit1 (FRET) (DNA, G4) GGGAGGGCGCTGGGAGGAGGG; assay: FRET melting; settings: 60 mM potassium cacodylate; pH 7.4; increasing compound concentration up to 3 µM, 200 nM DNA
# [2] = test system: G4 Myc (FRET) (DNA, G4) TGAGGGTGGGTAGGGTGGGTAA; assay: FRET melting; settings: 60 mM potassium cacodylate; pH 7.4; 1 µM compound, 200 nM DNA
# [3] = test system: G4 Telo (FRET) (DNA, G4) GGGTTAGGGTTAGGGTTAGGG; assay: FRET melting; settings: 60 mM potassium cacodylate; pH 7.4; 1 µM compound, 200 nM DNA
# [4] = test system: dsDNA (FRET) (DNA, hairpin, hexaethylene glycol (HEG, [(-CH2CH2O-)6]) linker between nucleotides 10 and 11) TATAGCTATATATAGCTATA; assay: FRET melting; settings: 60 mM potassium cacodylate; pH 7.4; increasing compound concentration up to 3 µM, 200 nM DNA
# [5] = test system: G4 Telo (fluorescence quench) (DNA, G4) AGGGTTAGGGTTAGGGTTAGGGT; assay: fluorescence quench binding assay; settings: 150 mM KCl; for Kd: 50 mM Tris HCl pH 7.2, 0.5% CHAPS, 0.05% Triton X-100, apparent, 9 nM DNA
# [6] = test system: G4 Kit1 (fluorescence quench) (DNA, G4) AGGGAGGGCGCTGGGAGGAGGG; assay: fluorescence quench binding assay; settings: 150 mM KCl; for Kd: 50 mM Tris HCl pH 7.2, 0.5% CHAPS, 0.05% Triton X-100, apparent, 9 nM DNA
# [7] = test system: G4 Myc (fluorescence quench) (DNA, G4) TGGGGAGGGTGGGGAGGGTGGGGAAGG; assay: fluorescence quench binding assay; settings: 150 mM KCl; for Kd: 50 mM Tris HCl pH 7.2, 0.5% CHAPS, 0.05% Triton X-100, apparent, 9 nM DNA
# [8] = test system: dsDNA (fluorescence quench) (DNA, duplex) CAATCGGATCGAATTCGATCCGATTG; assay: fluorescence quench binding assay; settings: 150 mM KCl; 50 mM Tris HCl pH 7.2, 0.5% CHAPS, 0.05% Triton X-100; apparent; 9 nM DNA
# [9] = 50 mM Tris HCl pH 7.2, CHAPS, Triton X-100, highest concentration tested 5 µM
binding [1],ΔTm [2] [°C],ΔTm [3] [°C],binding [4],Kd [5] [nM],Kd [6] [nM],Kd [7] [nM],Kd [8],"binding [5, 9]","binding [6, 9]","binding [7, 9]",Compound
yes,14,25,no,306 ± 6,323 ± 13,197 ± 10,"> 5,000 nM",–,–,–,C#CCCC1(CCNCCOc2cc(C(=O)Nc3cc(OCCN)c4ccccc4n3)nc(C(=O)Nc3cc(OCCN)c4ccccc4n3)c2)N=N1
yes,13,27,no,459 ± 25,669 ± 49,439 ± 36,"> 5,000 nM",–,–,–,C#CCCC1(CCC(=O)NCCOCCOCCNCCOc2cc(C(=O)Nc3cc(OCCN)c4ccccc4n3)nc(C(=O)Nc3cc(OCCN)c4ccccc4n3)c2)N=N1
no,0,0,–,–,–,–,–,no,no,no,C#CCCC1(CCC(=O)NC)N=N1
–,–,–,–,–,–,168 ± 8,–,–,–,–,NCCOc1cc(C(=O)Nc2cc(OCCN)c3ccccc3n2)nc(C(=O)Nc2cc(OCCN)c3ccccc3n2)c1
